# Data as given in US4476298A, “Erythromycin A derivatives” (Taisho Pharmaceutical Co., Ltd., priority 1981, dated 1984).
# Like-named read-outs stand apart in the source and are kept apart here.
# Key:
# Experiment in all cases: antibacterial activity (MIC), agar plate dilution method
# Type in all cases: cell-based
# [1] = test system: Staphylococcus aureus smith; conditions: for MIC: Staphylococcus aureus, read-out: MIC value (minimal inhibitory concentration)
# Protocol: (§1) Erythromycin A was used as a control, and the compounds of formula I derived from Fractions A, B and C were tested for antibacterial activity against various bacteria by the agar plate dilution method.
# Bacillus subtilis EM-R = conditions: for MIC: Bacillus subtilis, read-out: MIC value (minimal inhibitory concentration), Bacillus subtilis EM-R, strain resistant to erythromycin
# Protocol: as §1
# [2] = test system: Staphylococcus aureus TPR 23; conditions: for MIC: Staphylococcus aureus; for MIC value (minimal inhibitory concentration): Staphylococcus aureus TPR 23, strain resistant to erythromycin
# Protocol: as §1
# [3] = test system: Staphylococcus aureus TPR 13; conditions: for MIC: Staphylococcus aureus
# Protocol: as §1
# [4] = test system: Streptococcus faecalis ATCC 8043; conditions: for MIC: Enterococcus faecalis
# Protocol: as §1
# [5] = test system: Staphylococcus aureus TPR 25; conditions: for MIC: Staphylococcus aureus
# Protocol: as §1
# [6] = test system: Staphylococcus epidermidis IID 866; conditions: for MIC: Staphylococcus epidermidis
# Protocol: as §1
# [7] = test system: Staphylococcus aureus FDA 209 P; conditions: for MIC: Staphylococcus aureus
# Protocol: as §1
# Micrococcus luteus NIHJ = conditions: for MIC: read-out: MIC value (minimal inhibitory concentration)
# Protocol: as §1
# [8] = Staphylococcus aureus smith, agar plate dilution
# [9] = Micrococcus luteus NIHJ, agar plate dilution
# [10] = TPR13, Staphylococcus aureus TPR 13, strain resistant to erythromycin, agar plate dilution, read-out: MIC value (minimal inhibitory concentration)
# [11] = ATCC8043, Streptococcus faecalis ATCC 8043, agar plate dilution, read-out: MIC value (minimal inhibitory concentration)
# [12] = TPR25, Staphylococcus aureus TPR 25, strain resistant to erythromycin, agar plate dilution, read-out: MIC value (minimal inhibitory concentration)
# [13] = IID866, Staphylococcus epidermidis IID 866, agar plate dilution, read-out: MIC value (minimal inhibitory concentration)
# [14] = FDA209, Staphylococcus aureus FDA 209 P, agar plate dilution, read-out: MIC value (minimal inhibitory concentration)
Compound,MIC (Bacillus subtilis EM-R) [µg/mL],MIC value (minimal inhibitory concentration) ([2]; agar plate dilution) [µg/mL],"MIC [1, 8] [µg/mL]","MIC [3, 10] [µg/mL]","MIC [4, 11] [µg/mL]","MIC [5, 12] [µg/mL]","MIC [6, 13] [µg/mL]","MIC [7, 14] [µg/mL]",MIC (Micrococcus luteus NIHJ; [9]) [µg/mL],also measured
CC[C@H]1OC(=O)[C@H](C)[C@@H](O[C@H]2C[C@@](C)(OC)[C@@H](O)[C@H](C)O2)[C@H](C)[C@@H](O[C@@H]2O[C@H](C)C[C@H](N(C)C)[C@H]2O)[C@](C)(O)C[C@@H](C)C(=O)[C@H](C)[C@@H](O)[C@]1(C)O [Erythromycin A],> 100,–,–,–,–,–,–,–,–,"MIC [1]: 0.2 µg/mL; MIC ([2]; TPR23, read-out: MIC value (minimal inhibitory concentration)): 100 µg/mL; MIC ([3]; TPR13, read-out: MIC value (minimal inhibitory concentration)): 25 µg/mL; MIC ([4]; ATCC8043, read-out: MIC value (minimal inhibitory concentration)): ≤ 0.05 µg/mL; MIC ([5]; TPR25, read-out: MIC value (minimal inhibitory concentration)): 50 µg/mL; MIC ([6]; IID866, read-out: MIC value (minimal inhibitory concentration)): 0.4 µg/mL; MIC ([7]; FDA209, read-out: MIC value (minimal inhibitory concentration)): ≤ 0.05 µg/mL; MIC (Micrococcus luteus NIHJ; Micrococcus luteus): < 0.05 µg/mL"
"CC[C@H]1OC(=O)[C@H](C)[C@@H](O[C@H]2C[C@@](C)(OC)[C@@H](OC)[C@H](C)O2)[C@H](C)[C@@H](O[C@@H]2O[C@H](C)C[C@H](N(C)C)[C@H]2O)[C@@]2(C)C[C@@H](C)C(OC)(O2)[C@H](C)[C@H]2OC(=O)O[C@@]21C (single isomer, unassigned) [B]",–,6.25,–,–,–,–,–,–,–,"MIC value (minimal inhibitory concentration) [1, 8]: 0.8 µg/mL; MIC value (minimal inhibitory concentration) (Bacillus subtilis EM-R; Bacillus subtilis EM-R, strain resistant to erythromycin): 0.8 µg/mL; MIC value (minimal inhibitory concentration) ([3]; Staphylococcus aureus TPR 13, strain resistant to erythromycin, agar plate dilution): 3.1 µg/mL; MIC value (minimal inhibitory concentration) ([4]; Streptococcus faecalis ATCC 8043, agar plate dilution): 0.1 µg/mL; MIC value (minimal inhibitory concentration) ([5]; Staphylococcus aureus TPR 25, strain resistant to erythromycin, agar plate dilution): 3.1 µg/mL; MIC value (minimal inhibitory concentration) ([6]; Staphylococcus epidermidis IID 866, agar plate dilution): 0.8 µg/mL; MIC value (minimal inhibitory concentration) ([7]; Staphylococcus aureus FDA 209 P, agar plate dilution): 0.1 µg/mL; MIC value (minimal inhibitory concentration) (Micrococcus luteus NIHJ; [9]): < 0.05 µg/mL"
"CC[C@H]1OC(=O)[C@H](C)[C@@H](O[C@H]2C[C@@](C)(OC)[C@@H](OC)[C@H](C)O2)[C@H](C)[C@@H](O[C@@H]2O[C@H](C)C[C@H](N(C)C)[C@H]2O)[C@@]2(C)C[C@@H](C)C(OC)(O2)[C@H](C)[C@H]2OC(=O)O[C@@]21C (single isomer, unassigned) [A]",0.4,3.1,0.4,1.6,≤ 0.05,1.6,0.4,≤ 0.05,< 0.05,–
"CC[C@H]1OC(=O)[C@H](C)[C@@H](O[C@H]2C[C@@](C)(OC)[C@@H](OC)[C@H](C)O2)[C@H](C)[C@@H](O[C@@H]2O[C@H](C)C[C@H](N(C)C)[C@H]2O)[C@@]2(C)C[C@@H](C)C(O)(O2)[C@H](C)[C@H]2OC(=O)O[C@@]21C (single isomer, unassigned) [C]",0.4,–,0.2,0.8,≤ 0.05,0.8,0.4,≤ 0.05,< 0.05,"MIC ([2]; TPR23, Staphylococcus aureus TPR 23, strain resistant to erythromycin, agar plate dilution, read-out: MIC value (minimal inhibitory concentration)): 3.1 µg/mL"
